Measured values as given in patent US11192849B2, “Compounds, compositions, and methods for modulating ferroptosis and treating excitotoxic disorders” (THE TRUSTEES OF COLUMBIA UNIVERSITY IN THE CITY OF NEW YORK, priority 2013, dated 2021).

Experiments:
[1] = target: T1, system xc− (Homo sapiens, UniProt Q9UPY5); assay: [14C]Cystine uptake assay in HT-1080 cells; assay type: cell-based; details: Erastin 10 μM, glutamate 50 mM, SAS 1 mM
T1 construct: endogenous in cells; host or cells: HT-1080 cells (ATCC)
T1 sequence (Q9UPY5 1-501): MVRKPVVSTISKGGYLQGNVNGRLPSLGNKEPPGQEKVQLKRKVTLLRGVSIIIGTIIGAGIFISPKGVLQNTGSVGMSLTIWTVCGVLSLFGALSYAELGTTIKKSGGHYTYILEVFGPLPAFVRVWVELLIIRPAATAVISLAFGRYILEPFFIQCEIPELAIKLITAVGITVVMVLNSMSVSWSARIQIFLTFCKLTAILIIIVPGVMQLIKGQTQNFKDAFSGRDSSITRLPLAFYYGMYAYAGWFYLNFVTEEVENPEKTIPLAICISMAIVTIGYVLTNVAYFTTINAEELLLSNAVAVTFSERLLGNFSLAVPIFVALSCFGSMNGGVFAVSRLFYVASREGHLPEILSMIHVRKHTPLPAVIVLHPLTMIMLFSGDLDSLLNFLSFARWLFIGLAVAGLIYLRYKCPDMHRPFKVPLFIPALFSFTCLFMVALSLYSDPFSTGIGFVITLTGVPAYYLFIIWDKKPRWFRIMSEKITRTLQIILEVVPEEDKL
T1 sequence (P08195 1-529 partner): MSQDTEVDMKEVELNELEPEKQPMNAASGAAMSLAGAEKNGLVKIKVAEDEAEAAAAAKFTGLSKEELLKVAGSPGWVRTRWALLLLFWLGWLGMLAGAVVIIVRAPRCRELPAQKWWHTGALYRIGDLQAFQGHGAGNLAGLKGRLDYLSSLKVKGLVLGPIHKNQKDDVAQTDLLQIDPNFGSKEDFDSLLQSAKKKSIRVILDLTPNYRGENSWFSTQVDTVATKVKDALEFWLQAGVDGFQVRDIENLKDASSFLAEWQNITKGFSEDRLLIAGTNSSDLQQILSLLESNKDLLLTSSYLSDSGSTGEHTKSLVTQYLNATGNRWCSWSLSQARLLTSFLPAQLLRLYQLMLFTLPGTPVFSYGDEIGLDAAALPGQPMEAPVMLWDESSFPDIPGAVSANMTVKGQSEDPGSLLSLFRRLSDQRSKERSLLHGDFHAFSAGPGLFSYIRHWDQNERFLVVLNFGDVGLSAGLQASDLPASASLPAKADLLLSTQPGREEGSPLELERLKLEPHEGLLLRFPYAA
Protocol: 200,000 HT-1080 cells/well were seeded overnight in 6-well dishes (Corning). […] At this point, in each well the buffer was replaced with 600 μL uptake buffer containing compound and 0.12 μCi (80-110 mCi/mmol) of L-[3,3′-^14C]-cystine (Perkin Elmer) and incubated for 3 minutes at 37° C. Cells were then washed three times with ice-cold uptake buffer and lysed in 500 μL 0.1 M NaOH. To this lysate was added 15 mL of scintillation fluid and radioactive counts per minute were obtained using a scintillation counter. All measurements were performed in triplicate for each condition.

[2] = tested on: Calu-1 cells; assay: Erastin-induced ferroptosis in Calu-1 cells, NOX pathway inhibitors; assay type: cell-based, human
Protocol: (§1) Cell viability was typically assessed in 384-well format by Alamar Blue (Invitrogen) fluorescence (ex/em 530/590) measured on a Victor3 platereader (Perkin Elmer, Waltham, Mass.). In some experiments, Trypan Blue dye exclusion counting was performed using an automated cell counter (ViCell, Beckman-Coulter Inc., Brea, Calif.). Cell viability in test conditions is reported as a percentage relative to the negative control treatment.

[3] = tested on: HT-1080 cells; assay: Mitochondrial ROS (MitoSOX) in HT-1080 cells; assay type: cell-based, human; details: HT-1080, 6 hours; erastin 10 μM, rotenone 250 nM
Protocol: 200,000 HT-1080 cells were seeded into 6-well dishes (Corning). The next day, cells were treated with +/−rotenone +/−ferrostatin-1 for 3 hours (for MitoSOX experiments) or +/−STS +/−ferrostatin-1 for 4 hours (for 10-N-nonylacridine orange [NAO] experiments), harvested by trypsinization and analyzed as follows. For the analysis of mitochondrial ROS, cells were incubated with 5 μM MitoSOX (Molecular Probes/Invitrogen) in HBSS for 10 minutes in the dark at 37° C. […] MitoSOX data were collected in the FL2 channel and NAO data was collected in the FL1 channel. Data are from three independent biological replicates of each experiment. Data were analyzed by one-way ANOVA with Bonferroni's post-hoc test.
A minimum of 10,000 cells were analyzed per condition.

[4] = tested on: HT-1080 cells; assay: Inhibition of erastin (10 μM)-induced death in HT-1080 cells (Alamar Blue); assay type: cell-based, human; details: for prevention of erastin-induced death: erastin-treated HT-1080 cells
How it was run: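 HT-1080 cells (1,000/well) were treated next day with 10 μM erastin plus a compound dilution series for 24 h. Alamar Blue (10% final) was then added for 6 h and fluorescence read at ex/em 530/590.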

[5] = 2,2-Diphenyl-1-picrylhydrazyl (DPPH) cell-free antioxidant assay; assay type: biochemical; details: test compound 0.05 mM, 30 minutes
Protocol: The stable radical DPPH (Blois, 1958) was dissolved in methanol to a final working concentration of 0.05 mM. This was prepared as follows. First, a 100× stock concentration (5 mM) was prepared by dissolving 3.9 mg DPPH in 2 mL methanol. Then, for 25 mL of 0.05 mM final working solution, 250 μL of the 5 mM solution was added to 24.75 mL of methanol. 1 mL of DPPH solution was added to a small volume (<5 μL) each test compound dissolved in DMSO. The final concentration of each test compound was 0.05 mM. Samples were inverted several times and allowed to incubate at room temperature for 30 minutes. Samples were then aliquoted to white 96-well solid-bottom dishes (Corning) and absorbance at 517 nm was recorded using a TECAN M200 plate reader. All values were normalized to background (methanol only). The experiment was repeated three times and the data was averaged.
In parallel with the above cell-based assay, a 2,2-diphenyl-1-picrylhydrazyl (DPPH) assay was used to examine the ability of each analog to scavenge free radicals in a cell-free in vitro solution—a test of intrinsic antioxidant capacity. […] Redox active analogs scavenged the DPPH radical by 60-90% within 30 minutes (FIG. 18a).

[6] = tested on: HT-1080 cells; assay: Acridine orange relocalization (lysosomal membrane permeabilization) in HT-1080 cells; assay type: cell-based, human; details: acridine orange re-localization
Protocol: 200,000 HT-1080 cells were seeded into 6-well dishes (Corning). The next day, cells were incubated with 25 ng/mL of AO for 15 minutes, then medium was removed and cells were incubated in growth medium for 15 minutes. […] Relocalization of AO from lysosomes (discrete red puncta) to the cytosol (diffuse green color) was determined using an EVOS fl digital inverted fluorescent microscope (Advanced Microscopy Group) equipped with GFP (ex/em 470/525) and RFP (ex/em 531/593) light cubes.

[7] = tested on: rat organotypic hippocampal slice culture (OHSC); assay: Glutamate excitotoxic injury in organotypic hippocampal slice cultures (PI uptake); assay type: cell-based; details: 5 mM L-glutamate 3 hours; Fer-1 2 μM, CPX 5 μM, MK-801 10 μM; 24 hours
Protocol: OHSCs were cultured as previously described (Morrison et al., 2002) with approval from Columbia University's Institutional Animal Care and Use Committee (IACUC). Briefly, Sprague Dawley rat pups (P8-P10) were rapidly decapitated, and the hippocampus placed in ice-cold Gey's balanced salt solution (Sigma). 400 μm thick sections were cut using a Mcllwain tissue chopper and immediately plated on Millicell cell culture inserts (Millipore, Billerica, Mass.) in Neurobasal (Invitrogen) media supplemented with B27 (1×, Invitrogen), GlutaMAX (1 mM, Invitrogen), and D-glucose (4.5 mg/mL, Sigma) at 37° C. and 5% CO2. After 2 days in vitro (DIV), the media was changed to medium containing serum comprised of 50% DMEM (Sigma), 25% heat-inactivated horse serum (Sigma), 25% Hank's balanced salt solution (Sigma), GlutaMAX (1 mM, Invitrogen), and D-glucose (4.5 mg/mL, Sigma). Medium was changed every 2-3 days.
After 10-14 DIV, OBSCs were exposed to an excitotoxic injury consisting of a 3 hour exposure to 5 mM L-glutamate in SFM (Morrison et al., 2002). […] After the 3 hour exposure, the cultures were placed in fresh serum free media (SFM) containing 75% DMEM, 25% Hank's balanced salt solution, GlutaMAX (1 mM), D-glucose (4.5 mg/mL) until cell death was quantified at 24 hours. […]
Quantification of cell death has been described previously (Cater et al., 2007; Morrison et al., 2002). […] Percentage cell death was expressed as the number of pixels in the ROI above a threshold in the PI fluorescent image divided by the total number of pixels in the ROI.
OHSCs were treated with a lethal excitotoxic stimulus (5 mM L-glutamate, 3 hours) that mimics the consequences of stroke and neurodegenerative disease (Morrison et al., 2002; Sundstrom et al., 2005) (FIG. 5A). […] The effects of these compound treatments on propidium iodide (PI) uptake were analyzed, as an indicator of cell death, 24 hours following the end of glutamate treatment, in 3 defined regions of the OHSCs: the dentate gyrus (DG), the CA1 and the CA3 fields of the hippocampus.

[8] = tested on: mouse kidney proximal tubules; assay: Hydroxyquinoline + iron induced cell death in isolated mouse kidney proximal tubules (LDH release); assay type: cell-based; details: 10 μM hydroxyquinoline and ferrous ammonium sulfate, 60 min
Protocol: Tubule preparation: 8-12 week old C57/BL6 female mice were euthanized with isoflurane. […] The cortices were then dissected and minced on an ice cold tile, then resuspended in additional Solution A for 8-10 min. of digestion at 37° C. followed by enrichment of proximal tubules using centrifugation on self-forming Percoll gradients as previously described for rabbit tubules.
Experimental procedures for isolated tubules: Tubules were suspended at 1.5-2.0 mg tubule protein/ml in a 95% air/5% CO2-gassed medium containing (in mM) 110 NaCl, 2.6 KCl, 25 NaHCO3, 2.4 KH2PO4, 1.25 CaCl2, 1.2 MgCl2, 1.2 MgSO4, 5 glucose, 4 sodium lactate, 0.3 alanine, 5 sodium butyrate, 2 glycine, and 1.0 mg/ml bovine gelatin (75 bloom) (Solution B). After precincubation for 15 min. at 37° C., then were then resuspended in fresh Solution B containing 2 mM heptanoic acid instead of sodium butyrate along with experimental compounds.
In addition, the efficacy of Fer-1, SRS11-92, and selected analogs was tested in a model of iron-induced cell death in freshly isolated mouse kidney proximal tubules that simulates major elements of rhabdomyolysis-induced acute kidney injury (FIG. 15C). Cell death in this model is known to involve oxidative lipid damage (Sogabe, et al., 1996, Park, et al., 2011); it was therefore believed that Fer-1 might be protective. 10 μM each of hydroxyquinoline and ferrous ammonium sulfate (HQ+Fe) were used to induce cell death, which was quantified by monitoring LDH release after 60 min. […] By implication, cell death in these models may involve, at least in part, the induction of lipid peroxidation and perhaps ferroptosis.

[9] = tested on: 143B osteosarcoma cells; assay: Erastin / RSL3 lethality in 143B ρ0 and ρ+ cells; assay type: cell-based, human; details: 24 hours
Protocol: as §1
Because two erastin targets, VDAC2 and VDAC3, reside in the mitochondria, it was hypothesized that erastin-induced death involved aberrant ROS production by the mitochondrial electron transport chain (ETC). […] Furthermore, KRAS-mutant 143B osteosarcoma cells incapable of ETC-dependent ROS formation, due to the depletion of mitochondrial DNA (mtDNA)-encoded transcripts (ρ^0 cells), were as sensitive to erastin and RSL3 as matched mtDNA-wild-type (ρ^+) cells (FIGS. 1E, 1F, and 8C-E). Thus, erastin-induced cell death in human cancer cells involves DFO-sensitive ROS accumulation and can occur in cells lacking a functional ETC. This iron-dependent death phenotype was named ferroptosis.

Structure (SMILES): O=C(O)c1cc(/N=N/c2ccc(S(=O)(=O)Nc3ccccn3)cc2)ccc1O [SAS, sulfasalazine]
- Na+-independent uptake of [14C]cystine [1]: abolished

Structure (SMILES): c1ccc2c(c1)[I+]c1ccccc1-2 [DPI, diphenylene iodonium]
- suppression of erastin-induced ferroptosis [2]: strongly suppressed

Structure (SMILES): C=C(C)[C@H]1Cc2c(ccc3c2O[C@@H]2COc4cc(OC)c(OC)cc4[C@@H]2C3=O)O1 [rotenone, reference compound]
- MitoSOX-sensitive mitochondrial ROS production [3]: enhanced MitoSOX-sensitive ROS production

Structure (SMILES): N[C@@H](CCC(=O)O)C(=O)O [glutamate]
- Na+-independent uptake of [14C]cystine [1]: abolished

Structure (SMILES): CCOC(=O)c1ccc(N)c(N)c1 [CA1]
- EC50 ([4]; SI Table 8, read-out: EC50): > 10 µM
- prevention of erastin-induced death [4]: destroyed
- intrinsic antioxidant capability in the DPPH assay [5]: destroyed the antioxidant capability

Structure (SMILES): Cc1cc(C2CCCCC2)n(O)c(=O)c1 [CPX, ciclopirox olamine, reference compound]
- prevention of erastin-induced death [4]: suppressed erastin-induced death
- lysosomal membrane destruction in response to H2O2 [6]: protects from lysosomal rupture
- glutamate-induced cell death (PI uptake) in DG, CA1, CA3 [7]: attenuated significantly

Structure (SMILES): CN(C)c1cccc(-c2c3c(=O)n(-c4ccccc4Cl)[nH]c3cc(=O)n2C)c1 [GKT137831, reference compound]
- HQ+Fe induced lethality (LDH release) [8]: protective
- suppression of erastin-induced ferroptosis [2]: strongly suppressed

Structure (SMILES): COC(=O)c1ccc([C@@H]2c3[nH]c4ccccc4c3C[C@@H](C(=O)OC)N2C(=O)CCl)cc1 [RSL3]
- sensitivity of ρ0 versus ρ+ cells [9]: as sensitive
- Na+-independent uptake of [14C]cystine [1]: had no effect on this process

Structure (SMILES): C[C@]12N[C@H](Cc3ccccc31)c1ccccc12 [MK-801]
- glutamate-induced cell death (PI uptake) in DG, CA1, CA3 [7]: attenuated significantly
